Series [1] concerns the target T1, human 5-HT2C receptor (Homo sapiens, UniProt P28335).
T1 construct: expressed in transfected cells
T1 sequence (P28335 33-458): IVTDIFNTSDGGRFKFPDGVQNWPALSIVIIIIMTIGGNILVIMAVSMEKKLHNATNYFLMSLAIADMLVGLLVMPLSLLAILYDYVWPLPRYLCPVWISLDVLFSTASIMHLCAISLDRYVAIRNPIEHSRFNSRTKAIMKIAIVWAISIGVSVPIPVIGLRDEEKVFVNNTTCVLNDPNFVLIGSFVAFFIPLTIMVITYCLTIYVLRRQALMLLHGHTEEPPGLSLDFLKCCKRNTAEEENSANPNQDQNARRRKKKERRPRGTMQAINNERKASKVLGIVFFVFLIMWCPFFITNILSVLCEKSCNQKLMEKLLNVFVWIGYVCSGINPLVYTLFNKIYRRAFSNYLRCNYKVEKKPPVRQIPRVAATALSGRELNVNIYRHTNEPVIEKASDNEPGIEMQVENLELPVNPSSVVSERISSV
In words: 5-HT2C receptor-stimulated calcium mobilization (FLIPR) in CHO cells. The following applies: for Emax: CHO, read-out: 5-HT2C Function Emax (%); for EC50: calcium mobilization, CHO cells, read-out: 5-HT2C Function EC50. The class given is cell-based. On the technique in general: Calcium flux is commonly read through the fluorescence of an indicator in the cells.

Series [2] deals with T2, human 5-hydroxytryptamine-2C (h-5-HT2C) receptor (Homo sapiens, UniProt P28335).
T2 construct: expressed in transfected cells; host or cells: Chinese Hamster Ovary (CHO) cells; membrane preparation
T2 sequence (P28335 33-458): T1 sequence (P28335 33-458)
Briefly: [125I]DOI binding to membranes of CHO cells expressing h-5-HT2C receptor.

The structures appear in SMILES notation. Where a name gives a salt, the structure may show the parent alone. Read-outs that look alike come from different tables or passages of the source.

The melting point is the temperature of the solid-liquid transition. The molecule `CCc1c(-c2ccccc2)c(CCN)c2ccccn12` (as salt: fumaric acid salt) [Example 2, 2-(3-ethyl-2-phenylindolizin-1-yl)ethylamine] registered a melting point of 173 to 176 °C.

Turning to `CCc1cn2ccccc2c1CCN` (as salt: fumaric acid salt) [Example 4, 2-(2-ethylindolizin-1-yl)ethylamine], the melting point was 170 to 175 °C (dec.).

One may read the Emax as the greatest response seen or fitted, relative to the assay's reference. For orientation: EC50 means the midpoint of the concentration-response curve. A word on the Ki: it is the equilibrium dissociation constant of an inhibitor or competing ligand from its target. Turning to `CCCc1c(C)c(CC(C)N)c2ccccn12` (stereo not drawn) [Example 10, 1-(2-methyl-3-propylindolizin-1-yl)propan-2-amine], in series [1], the Emax is 90% and the EC50 was 46 nM. This molecule also gave a Ki in series [2] of 17 nM.

Consider `CCc1c(-c2ccccc2)c(CCN)c2ccccn12` [Example 2, 2-(3-ethyl-2-phenylindolizin-1-yl)ethylamine], for which, in series [2] (read-out: 5-HT2C Affinity Ki), the Ki stood at 117 nM.

On to `CCCc1c(CC)c(CCN)c2ccccn12` (as salt: fumaric acid salt) [Example 7, 2-(2-ethyl-3-propylindolizin-1-yl)ethylamine], for which the melting point was 154 to 158 °C.

Regarding `CSc1ccc2c(c1)C(N1CCN(C)CC1)Cc1ccccc1S2` (stereo not drawn) [Methiothepin, reference compound], the Ki in series [2] (reference compounds, [125I]DOI radioligand, CHO cell membranes, read-out: Ki (95% confidence interval)) is 4.6 nM.

Turning to `CCCNCCc1c(CC)c(CCC)n2ccccc12` [Example 8], in series [2] (read-out: 5-HT2C Affinity Ki), the Ki turned out to be 208 nM.

`CCCc1c(CC)c(CC(C)N)c2ccccn12` (stereo not drawn) (as salt: fumaric acid salt) [Example 9, 2-(2-ethyl-3-propylindolizin-1-yl)-1-methylethylamine] returned a melting point of 184 to 186 °C.

In the case of `CCc1c(CCN)c2ccccn2c1CC` (as salt: fumaric acid salt) [Example 5, 2-(2,3-diethylindolizin-1-yl)ethylamine], the melting point is 166 to 171 °C.

For `NCCc1c(-c2ccccc2)cn2ccccc12` [Example 1, 2-(2-phenylindolizin-1-yl)ethylamine], in series [2] (read-out: 5-HT2C Affinity Ki), the Ki turned out to be 272 nM.

Molecule `CCCc1c(-c2ccccc2)c(CCN)c2ccccn12` (as salt: fumaric acid salt) [Example 3, 2-(2-phenyl-3-propylindolizin-1-yl)ethylamine] yielded a melting point of 169 to 172 °C.

Take `CCCc1c(-c2ccccc2)c(CCN)c2ccccn12` [Example 3, 2-(2-phenyl-3-propylindolizin-1-yl)ethylamine]: in series [2] (read-out: 5-HT2C Affinity Ki), the inhibition constant (Ki) amounted to 54 nM.

As for `CCc1c(CCN)c2ccccn2c1CC` [Example 5, 2-(2,3-diethylindolizin-1-yl)ethylamine], in series [1], the Emax is 80% and the half-maximal effective concentration (EC50) came to 11 nM. Besides, the inhibitory constant (Ki) in series [2] came to 35 nM.

Take `CCNCCc1c(CC)c(CC)n2ccccc12` [Example 6, N-[2-(2,3-diethylindolizin-1-yl)ethyl]-N-ethylamine]: the Ki in series [2] (read-out: 5-HT2C Affinity Ki) stood at 228 nM.

In the case of `CCNCCc1c(CC)c(CC)n2ccccc12` (as salt: fumaric acid salt) [Example 6, N-[2-(2,3-diethylindolizin-1-yl)ethyl]-N-ethylamine], the melting point fell in the range of 154 to 158 °C.

In the case of `CCCc1c(C)c(CC(N)CC)c2ccccn12` (stereo not drawn) [Example 11, 1-(2-methyl-3-propylindolizin-1-yl)butan-2-amine], the inhibition constant Ki in series [2] (read-out: 5-HT2C Affinity Ki) was 457 nM.

As to `CCCc1c(CC)c(CCN)c2ccccn12` [Example 7, 2-(2-ethyl-3-propylindolizin-1-yl)ethylamine], in series [1], the Emax amounted to 100% and the 50% effective concentration (EC50) came out at 19 nM. The molecule further had an inhibitory constant (Ki) in series [2] of 21 nM.

For `CCc1cn2ccccc2c1CCN` [Example 4, 2-(2-ethylindolizin-1-yl)ethylamine], the Ki in series [2] worked out at 121 nM.

In turn, `NCCc1c2c(n3ccccc13)CCCC2` [Example 12, 2-(1,2,3,4-tetrahydropyrido[1,2-a]indol-10-yl)ethylamine] yielded a Ki in series [2] of 98 nM.

Turning to `CCCc1c(CC)c(CC(C)N)c2ccccn12` (stereo not drawn) [Example 9, 2-(2-ethyl-3-propylindolizin-1-yl)-1-methylethylamine], the inhibitory constant (Ki) in series [2] (read-out: 5-HT2C Affinity Ki) came out at 124 nM.

The molecule `CCCc1c(C)c(CC(C)N)c2ccccn12` (stereo not drawn) (as salt: fumaric acid salt) [Example 10, 1-(2-methyl-3-propylindolizin-1-yl)propan-2-amine] showed a melting point of 147 to 150 °C.

For the origin of these results see US7608626B2, “Substituted indolizines and derivatives as CNS agents” (Wyeth, priority 2004, dated 2009).
